A short description of data set [1]: LNP size, PDI and zeta potential by Dynamic Light Scattering (Method A). Type of data set: physicochemical. Particulars: LNP formulated with the lipid, DLS. The procedure:
(§1) The synthesized lipids were tested in term of in vitro transfection efficacy and toxicity on HeLa cells. In order to perform the mentioned biological tests, appropriate LNPs had to be formulated from the synthesized lipids. The formulation technique was different in Method A and B. The particle size, polydispersity index (PDI) and zeta potential of resulting LNPs were determined by means of Dynamic Light Scattering technique (DLS). Prior to biological testing the encapsulation efficiency (EE) of the loaded LNPs was determined by using RiboGreen RNA assay. In case of Method A Luc mRNA while in case of Method B GFP mRNA was transfected into the cells. In parallel with the transfection experiments, toxicity of the investigated LNPs was determined, in case of Method A resazurin assay while in case of Method B MTT assay was used. Additionally, the toxicity of the lipids was investigated on HepG2 cells and IC50 values were determined.
• 1. If needed, prepare stock solutions by solving known amounts of lipid powder into an appropriate solvent. The recommended solvent is ethanol and the recommended concentration is typically in the range 10-50 mM. Higher concentrations are preferred to allow flexibility on mRNA-LNP concentration. • 2. Remove the lipid stock solutions from the −20° C. freezer. For long-term storage, −80° C. is used. • 3. Check the vials for precipitation, DOPE (CAS #4004-05-1) (20 mM) and DSPE-PEG (CAS #474922-26-4) (5 mM) may need a 5-30 minute incubation step at 37° C. with intermittent vortexing to resuspend all contents. […] As a last resort, lipids may be heated to 50° C. to resuspend, time should be kept as short as possible to prevent oxidation or other modifying or degradative processes. • 4. Mix the lipids by vortexing for 2 minutes. • 5. […] Cooling the solution prevent excessive evaporation of ethanol or similar solvents upon opening. • 6. Meanwhile, thaw the RNA samples, including the latest SecNLuc control, by inserting the frozen tube in a room temperature aluminium block. • 7. Prepare for each LNP-formulation with identical mRNA component, an RNA master mix according to Table 1 below in a fresh tube. Use of a master mix allows more precise comparison of lipid formulations relative to each other. Split the master mix over a number of fresh tubes equal to the number of samples+controls. Each tube contains 375 μl of mRNA in 10 mM Citrate pH 4.0. • 8. Prepare for each LNP formulation with identical lipid composition a Lipid master mix according to Table 1 below in a fresh tube, exclude the lipid of interest. Use of a master mix allows more precise comparison of the novel ionizable lipid relative to each other. Split the master mix over a number of fresh tubes equal to the number of samples+controls. Each tube contains 65.5 μl of lipid master mix. • 9. Add the ionizable lipid of interest to the equally divide lipid master mix. Mix well by pipetting up and down. Label the tube according to the ionizable lipid used. • 10. Power on the L1 FM (L1 Formulation Machine uses 2 high-speed syringe pumps to mix lipids in organic solvents with mRNA in acidic aquous solution to generate well-defined LNPs. The microfluidic mixing chip involves a dean-type structure performing the high-efficiency mixing at a total flow rate (TFR) of around 12 ml/min at a 3:1 mixing ratio) and allow it to do a calibration of motor positions.
• 18. Fill a fresh syringe (C) through a blunt 18G stainless steel needle with the previously prepared RNA mixture of step 6. The volume should be approximately 85% of total formulation volume+25 μl (dead-volume). Make sure to remove all air bubbles by tapping. • 19. Fill a fresh syringe (D) through a blunt 18G stainless steel needle with the Lipid master mix. The volume should be approximately […] of total formulation volume+25 μl (dead-volume). Again, Make sure to remove all bubbles. • 20. Attach the syringes in the correct orientation, syringe A on the left and syringe B on the right • 21.

Data set [2] can be described thus: Encapsulation efficiency of loaded LNPs, RiboGreen RNA assay (Method A). Format: physicochemical. Particulars: encapsulation efficiency of mRNA-loaded LNP, Method A, RiboGreen. The procedure: as §1
• 1. Preparation of sample stock solutions: In the top row of the 96-well plate (Row A in the plate), add 297 μL of TE buffer pH 7.4 (see Table 1) to a single well for each sample plus a single well for a PBS blank using a multichannel pipette.
• 2. Add 3 μL of sample (at 0.5 mg/ml) to these wells for a final volume of 300 μL. Add 3 μL of PBS to the blank well. Pipette to mix. This is your stock solution for each sample. The final RNA concentration of these stock solutions should be approximately 4-7 μg/mL. • 3. mRNA-LNP sample setup: • a. Add 50 μL of TE buffer pH 7.5 to the two wells directly below each sample (Rows B and C in the plate). • b. Add 50 μL of sample stock solution from Row A into the wells in Rows B and C (this assay is run in duplicate. All liquid handling should be done using a multichannel pipette). • c. Add 50 μL of Triton buffer to the wells in Rows D and E (in the plate) below each sample. • d. Add 50 μL of sample stock solution from Row A into the wells in Rows D and E. • 4. RiboGreen RNA standard curve setup: Dilute the RNA standard to produce an RNA stock at a final concentration of 20 μg/mL in TE buffer pH 7.4. The final volume should be 150 μL. Set up a standard curve (in duplicate) as using the RNA stock (20 μg/mL siRNA), TE buffer pH 7.5, and Triton X-100 buffer according the Table 2 and Table 3 below.
• 5. Once samples and standard curve are plated, incubate the plate at 37° C. for 10 min to lyse mRNA-LNP in the presence of Triton X-100 buffer. • 6. Meanwhile, prepare RiboGreen Solution: Sum the total number of sample wells and standard curve wells. Add three to this number, and multiply the total by 100. This is the total volume, in μL, of RiboGreen Solution needed for this assay. In a 15 mL RNAse-free Falcon tube, dilute the RiboGreen Reagent 1:100 into TE buffer pH 7.5 to the total volume calculated. • 7. Addition of RiboGreen Solution and sample readings: Remove a 96-well plate from 37° C. incubator; let it cool to room temperature as RiboGreen binding is somewhat temperature dependent. Add 100 μL of RiboGreen Solution to each well. Pop any air bubbles with a needle. Read using fluorescent plate reader (excitation=480, emission=525). • 8. Sample analysis: Use the data generated by the RiboGreen standard curve to calculate the concentration of mRNA. Transfection Efficiency with Luciferase-mRNA (Method A)

Turning to `CCCCC/C=C\C/C=C\CCCCCCCCOC(CCCCCCC/C=C\C/C=C\CCCCC)O[Si](C)(C)OCCCCCCN1CCCCC1CO` (stereo not shown) [Example 64, (1-((20Z,23Z)-10-((8Z,11Z)-heptadeca-8,11-dien-1-yl)-8,8-dimethyl-7,9,11-trioxa-8-silanonacosa-20,23-dien-1-yl)piperidin-2-yl)methanol], in data set [1], the PDI was determined as 0.098, the “Size (nm)” value is recorded as 293.7 nm and the “Zeta potential (mV)” value is −9.226 mV. The “EE (%)” value in data set [2] is listed as 85%.
Taken in the same sequence, the figures for `CCCCC/C=C\C/C=C\CCCCCCCCOC(CCCCCN(C)CC(O)CO)O[Si](C)(C)OCCCCCCCC/C=C\C/C=C\CCCCC` (stereo not shown) [Example 66, (22Z,25Z)-4,12,12-trimethyl-10-(((9Z,12Z)-octadeca-9,12-dien-1-yl)oxy)-11,13-dioxa-4-aza-12-silahentriaconta-22,25-diene-1,2-diol] were 0.043, 223.6 nm, −11.66 mV and 82%.
Taken in the same sequence, the figures for `C#CCN(C)CCCCCCO[Si](C)(C)OC(CCCCCCC/C=C\C/C=C\CCCCC)OCCCCCCCC/C=C\C/C=C\CCCCC` (stereo not shown) [Example 67, (20Z,23Z)-10-((8Z,11Z)-heptadeca-8,11-dien-1-yl)-N,8,8-trimethyl-N-(prop-2-yn-1-yl)-7,9,11-trioxa-8-silanonacosa-20,23-dien-1-amine] were 0.058, 127.2 nm, −8.62 mV and 88%.
Taken in the same sequence, the figures for `CCCCC/C=C\C/C=C\CCCCCCCCOC(CCCCCCC/C=C\C/C=C\CCCCC)O[Si](C)(C)OCCCCCCN(C)Cc1cn(C2[C@H](O)O[C@H](CO)[C@@H](O)[C@@H]2O)nn1` (stereo partly drawn) [Example 68, (4R,5S,6R)-3-(4-((22Z,25Z)-12-((8Z,11Z)-heptadeca-8,11-dien-1-yl)-2,10,10-trimethyl-9,11,13-trioxa-2-aza-10-silahentriaconta-22,25-dien-1-yl)-1H-1,2,3-triazol-1-yl)-6-(hydroxymethyl)tetrahydro-2H-pyran-2,4,5-triol] were 0.081, 109.9 nm, −6.380 mV and 88%.
For `CCCCC/C=C\C/C=C\CCCCCCCCOC(CCCCCCC/C=C\C/C=C\CCCCC)O[Si](C)(C)OCCCCCCN1CCN(CCCCCCO[Si](C)(C)OC(CCCCCCC/C=C\C/C=C\CCCCC)OCCCCCCCC/C=C\C/C=C\CCCCC)CC1` (stereo not shown) [Example 70, 1,4-bis((20Z,23Z)-10-((8Z,11Z)-heptadeca-8,11-dien-1-yl)-8,8-dimethyl-7,9,11-trioxa-8-silanonacosa-20,23-dien-1-yl)piperazine], in data set [1], the PDI is listed as 0.061, the “Size (nm)” value came to 171.4 nm and the “Zeta potential (mV)” value is on record as −10.47 mV. The “EE (%)” value in data set [2] came to 81%.
Taken in the same sequence, the figures for `CCCCC/C=C\C/C=C\CCCCCCCCOC(CCCCCCC/C=C\C/C=C\CCCCC)O[Si](C)(C)OCCCCCCN(CCO)CCN(CCO)CCCCCCO[Si](C)(C)OC(CCCCCCC/C=C\C/C=C\CCCCC)OCCCCCCCC/C=C\C/C=C\CCCCC` (stereo not shown) [Example 71, (26Z,29Z)-16-((8Z,11Z)-heptadeca-8,11-dien-1-yl)-3-((20Z,23Z)-10-((8Z,11Z)-heptadeca-8,11-dien-1-yl)-8,8-dimethyl-7,9,11-trioxa-8-silanonacosa-20,23-dien-1-yl)-6-(2-hydroxyethyl)-14,14-dimethyl-13,15,17-trioxa-3,6-diaza-14-silapentatriaconta-26,29-dien-1-ol] were 0.103, 166.6 nm, −11.09 mV and 84%.
On to `CCCCCCCC/C=C\CCCCCCCC(OCC(CCCCCCCC)SCCCCC)O[Si](C)(C)OCCCCCCN(CCO)CCO` (stereo not shown) [Example 72, (Z)-13-(heptadec-8-en-1-yl)-3-(2-hydroxyethyl)-11,11-dimethyl-16-octyl-10,12,14-trioxa-17-thia-3-aza-11-siladocosan-1-ol], for which, in data set [1], the PDI was 0.17, the “Size (nm)” value is 84.37 nm and the “Zeta potential (mV)” value is listed as −14.24 mV. Further, the “EE (%)” value in data set [2] is on record as 87%.
Taken in the same sequence, the figures for `CCCCCCCC/C=C\CCCCCCCC(OCC(CCCCCCCC)SCCCCCCCCCC)O[Si](C)(C)OCCCCCCN(CCO)CCO` (stereo not shown) [Example 73, (Z)-13-(heptadec-8-en-1-yl)-3-(2-hydroxyethyl)-11,11-dimethyl-16-octyl-10,12,14-trioxa-17-thia-3-aza-11-silaheptacosan-1-ol] were 0.16, 86.3 nm, −17.46 mV and 87%.
Taken in the same sequence, the figures for `CCCCCCCC/C=C\CCCCCCCC(OCCCCCCCCCCCC1CCCCC1)O[Si](C)(C)OCCCCCCN(CCO)CCO` (stereo not shown) [Example 74, (Z)-25-cyclohexyl-13-(heptadec-8-en-1-yl)-3-(2-hydroxyethyl)-11,11-dimethyl-10,12,14-trioxa-3-aza-11-silapentacosan-1-ol] were 0.19, 73.11 nm, −9.76 mV and 87%.
Taken in the same sequence, the figures for `CCCCCCCC/C=C\CCCCCCCC(OCCC(C)CCCC(C)CCCC(C)CCCC(C)C)O[Si](C)(C)OCCCCCCN(CCO)CCO` (stereo not shown) [Example 75, (Z)-13-(heptadec-8-en-1-yl)-3-(2-hydroxyethyl)-11,11,17,21,25,29-hexamethyl-10,12,14-trioxa-3-aza-11-silatriacontan-1-ol] were 0.18, 76.35 nm, −13.40 mV and 89%.

Values taken from US20260109721A1, “IONIZABLE CATIONIC LIPIDS INCORPORATING SILICON: SYNTHESIS AND LNP FORMULATION” (priority 2023, published 2026).
